Source: PMC6023893, “Glutamic acid–valine–citrulline linkers ensure stability and efficacy of antibody–drug conjugates in mice” (Nature Communications, 2018)
Numbered stars: 1 amine (or outer) side, 2 acyl side, 3 side chain; on linkers, the order of the positions; unused ones are H or OH. Square brackets hold non-standard residues; d marks the D form. Peptide text beside a SMILES is read from it. * marks the point of attachment. Dolaproine = CO[C@@H]([C@@H]1CCCN1)[C@@H](C)C(=O)O; NHCH2(1-pyrenyl) = c1cc2ccc3ccc(CN*)c4ccc(c1)c2c34; Dil = CC[C@H](C)[C@H](NC)[C@@H](CC(=O)O)OC; PABC = O=C(OCc1ccc(N[*:1])cc1)[*:2]; X1 = C[C@@H](N*)[C@@H](O)c1ccccc1; Cit = NC(=O)NCCC[CH](N)C(=O)O; NMeV = CN[C@H](C(=O)O)C(C)C; Glycolyl = O=C(CO)*; Sar = CNCC(=O)O

Legend:
in vitro = in vitro ADME; conditions: BALB/c, mouse, plasma
Description: Each test compound (10 mM in DMSO, 2 µL) was mixed with 1 µL of 1-pyrenemethylamine (10 mM in DMSO, internal standard) and incubated at 37 °C for 10 min. Pre-warmed human plasma pooled from healthy donors or BALB/c mouse plasma (197 µL, Innovative Research) was added to the mixture, followed by incubation at 37 °C. Aliquots (10 µL) were collected at each time point (0, 1, 6, 24, 48, and 96 h) and 40 µL of cold acetonitrile containing 1% formic acid was added to precipitate proteins. Supernatant of each sample was obtained and analyzed for quantification by analytical HPLC as described above. All assays were performed in triplicate.

[1] = ref US8512707B2; cited from earlier work
human liver cathepsin B = molecular target: T1, human liver cathepsin B (Homo sapiens, UniProt P07858); assay: Cathepsin B-mediated cleavage assay using pyrene probes; assay type: biochemical; conditions: 37 °C, pH 5.0
T1 construct: Pre-warmed human liver cathepsin B (20 ng µL^–1, EMD Millipore); purchased EMD Millipore; host or cells: human liver (tissue-derived, as named)
Description: Each test compound (10 mM in DMSO, 2 µL) was mixed with 97 µL of MES buffer (25 mM MES-Na, 1 mM DTT, pH 5.0) and 1 µL of 1-pyrenemethylamine (10 mM in DMSO, internal standard). The mixture was incubated at 37 °C for 10 min. Pre-warmed human liver cathepsin B (20 ng µL^–1, EMD Millipore) in 100 µL MES buffer was added to the mixture, followed by incubation at 37 °C. Aliquots (10 µL) were collected at each time point (0, 0.5, 1, 3, 24, and 48 h). Cold acetonitrile containing 1% formic acid (40 µL) was added to precipitate proteins. Precipitated proteins were separated by centrifugation (15,000 × g, 4 °C, 30 min) and supernatant of each sample was analyzed for quantification by analytical HPLC (UV absorption at 342 nm). The amount of each probe was normalized to the peak area of the internal standard. All assays were performed at least three times in technical duplicate, and data shown are representative of the replicates.

SMILES | half-life at 100 µM (in vitro) | maximum tolerated dose (MTD) [1] | Cathepsin B-mediated cleavage rate of probes (human liver cathepsin B)
CC(=O)NC(CC(=O)O)C(=O)NC(C(=O)NC(CCCNC(N)=O)C(=O)Nc1ccc(COC(=O)N(C)CC(=O)NCc2ccc3ccc4cccc5ccc2c3c45)cc1)C(C)C (centres unmarked) [probe 1d] (Ac-DV[Cit][PABC][Sar]-{NHCH2(1-pyrenyl)}; configuration not given here) | 14 h |  | 
CC(=O)NC(CCCCN)C(=O)NC(C(=O)NC(CCCNC(N)=O)C(=O)Nc1ccc(COC(=O)N(C)CC(=O)NCc2ccc3ccc4cccc5ccc2c3c45)cc1)C(C)C (centres unmarked) [probe 1e] (Ac-KV[Cit][PABC][Sar]-{NHCH2(1-pyrenyl)}; configuration not given here) | 0.9 h |  | 
CC(=O)NC(C(=O)NC(CCCNC(N)=O)C(=O)Nc1ccc(COC(=O)N(C)CC(=O)NCc2ccc3ccc4cccc5ccc2c3c45)cc1)C(C)C (centres unmarked) [probe 1a] | 2.3 h |  | 
CC(C)C(NC(=O)CNC(=O)CO)C(=O)NC(CCCNC(N)=O)C(=O)Nc1ccc(COC(=O)N(C)CC(=O)NCc2ccc3ccc4cccc5ccc2c3c45)cc1 (centres unmarked) [probe 1f] (Glycolyl-GV[Cit][PABC][Sar]-{NHCH2(1-pyrenyl)}; configuration not given here) | 5 h |  | 
CC(=O)NC(CCC(=O)O)C(=O)NC(C(=O)NC(CCCNC(N)=O)C(=O)Nc1ccc(COC(=O)N(C)CC(=O)NCc2ccc3ccc4cccc5ccc2c3c45)cc1)C(C)C (centres unmarked) [probe 1c] (Ac-EV[Cit][PABC][Sar]-{NHCH2(1-pyrenyl)}; configuration not given here) | 19.1 h |  | 
CC[C@H](C)[C@@H]([C@@H](CC(=O)N1CCC[C@H]1[C@H](OC)[C@@H](C)C(=O)N[C@H](C)[C@@H](O)c1ccccc1)OC)N(C)C(=O)[C@@H](NC(=O)[C@@H](NC)C(C)C)C(C)C [MMAE, monomethyl auristatin E] (H-[NMeV]V[Dil][Dolaproine]-X1) |  | 1 mg/kg | 
CC(=O)NC(CO)C(=O)NC(C(=O)NC(CCCNC(N)=O)C(=O)Nc1ccc(COC(=O)N(C)CC(=O)NCc2ccc3ccc4cccc5ccc2c3c45)cc1)C(C)C (centres unmarked) [probe 1b] (Ac-SV[Cit][PABC][Sar]-{NHCH2(1-pyrenyl)}; configuration not given here) | 3.1 h |  | cleavage rate comparable with that of VCit probe 1a
